In this assay the test system is BDF1 mice, P388 leukemia ip, median survival T/C. Nature of the assay: NCI In Vivo Anticancer Drug Screen. Data for tumor model P388 Leukemia (intraperitoneal) in B6D2F1 (BDF1) mice. The conditions noted are these: endpoint: median survival time, higher = longer survival. Put shortly:
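Compound-treated tumour-bearing mice were compared with vehicle-treated controls. Survival was recorded, and the value is the treated-group measurement divided by the control-group measurement (T/C).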

Where [1] appears, read: dose: 50.0 mg/kg/injection, schedule: Q01DX009 (ip), vehicle: saline with Tween-80.
[2] abbreviates: dose: 75.0 mg/kg/injection, schedule: Q01DX009 (ip), vehicle: saline with Tween-80.
Setting [3] is: dose: 100.0 mg/kg/injection, schedule: Q01DX009 (ip), vehicle: saline with Tween-80.
Setting [4] is: dose: 100.0 mg/kg/injection, schedule: Q04DX003 (ip), vehicle: saline with Tween-80.
Setting [5] is: dose: 200.0 mg/kg/injection, schedule: Q04DX003 (ip), vehicle: saline with Tween-80.
Setting [6] is: dose: 400.0 mg/kg/injection, schedule: Q04DX003 (ip), vehicle: saline with Tween-80.
[7] abbreviates: dose: 200.0 mg/kg/injection, schedule: Q01DX009 (ip), vehicle: saline with Tween-80.
Where [8] appears, read: dose: 400.0 mg/kg/injection, schedule: Q04DX003 (ip), vehicle: Klucel (hydroxypropylcellulose) (HPC).
Setting [9] is: dose: 50.0 mg/kg/injection, schedule: Q01DX009 (ip), vehicle: Klucel (hydroxypropylcellulose) (HPC).
Where [10] appears, read: dose: 100.0 mg/kg/injection, schedule: Q01DX009 (ip), vehicle: Klucel (hydroxypropylcellulose) (HPC).
Setting [11] is: dose: 100.0 mg/kg/injection, schedule: Q04DX003 (ip), vehicle: Klucel (hydroxypropylcellulose) (HPC).
Setting [12] is: dose: 200.0 mg/kg/injection, schedule: Q04DX003 (ip), vehicle: Klucel (hydroxypropylcellulose) (HPC).

Structures are written as SMILES. Several values for one entry are separate records, joined by “and”; a condition that tells them apart may be missing. Identical values can stand only once. Toxic doses and inconclusive results are not listed.

Consider `CCOC(=O)C(=O)C1CCNC1=O` (stereo not given), for which the T/C was 100 % of control (dose: 12.5 mg/kg/injection, schedule: Q04DX003 (ip), vehicle: saline with Tween-80); 100 % of control (dose: 25.0 mg/kg/injection, schedule: Q04DX003 (ip), vehicle: saline with Tween-80); 100 % of control (dose: 50.0 mg/kg/injection, schedule: Q04DX003 (ip), vehicle: saline with Tween-80).
`Cc1ccc(NS(=O)(=O)c2ccc([N+](=O)[O-])cc2)cc1`: the T/C was 90 % of control (dose: 12.5 mg/kg/injection, schedule: Q01DX009 (ip), vehicle: saline with Tween-80); 100 % of control (dose: 33.0 mg/kg/injection, schedule: Q01DX009 (ip), vehicle: saline with Tween-80); 90 % of control and 100 % of control under setting [1]; 95 % of control under setting [2]; 100 % of control under setting [3].
For `CNC(=N)c1ccc(NC(=N)c2ccc(NC(=N)c3ccc(NC(=N)c4ccc(C(=N)NC)cc4)cc3)cc2)cc1`, the T/C reads like this: (dose: 6.0 mg/kg/injection, schedule: Q01DX009 (ip), vehicle: saline with Tween-80) 120 % of control; (dose: 13.0 mg/kg/injection, schedule: Q01DX009 (ip), vehicle: saline with Tween-80) 166 % of control and 175 % of control; (dose: 18.0 mg/kg/injection, schedule: Q04DX003 (ip), vehicle: saline with Tween-80) 100 % of control; (dose: 20.0 mg/kg/injection, schedule: Q01DX009 (ip), vehicle: saline with Tween-80) 157 % of control and 165 % of control; (dose: 20.0 mg/kg/injection, schedule: Q04DX003 (ip), vehicle: saline with Tween-80) 109 % of control; (dose: 26.0 mg/kg/injection, schedule: Q04DX003 (ip), vehicle: saline with Tween-80) 116 % of control. Besides, the T/C by setting is: (dose: 30.0 mg/kg/injection, schedule: Q01DX009 (ip), vehicle: saline with Tween-80) 214 % of control; (dose: 40.0 mg/kg/injection, schedule: Q04DX003 (ip), vehicle: saline with Tween-80) 154 % of control; (dose: 80.0 mg/kg/injection, schedule: Q04DX003 (ip), vehicle: saline with Tween-80) 90 % of control.
For `Cc1ccc2nc(-c3ccccc3N)[nH]c2c1`, the T/C is 100 % of control under setting [4], 104 % of control under setting [5] and 90 % of control under setting [6].
As for `CSc1ccc2c(c1)C(N1CCN(C)CC1)Cc1ccccc1S2` (stereo not given), the T/C (dose: 6.25 mg/kg/injection, schedule: Q04DX003 (ip), vehicle: saline) is 113 % of control; the T/C (dose: 25.0 mg/kg/injection, schedule: Q04DX003 (ip), vehicle: saline) was 114 % of control; the T/C (dose: 50.0 mg/kg/injection, schedule: Q04DX003 (ip), vehicle: saline) was 107 % of control.
As to `CC(Nc1ccccc1)(C(N)=O)c1ccccc1` (stereo not given), the T/C runs as follows: (dose: 25.0 mg/kg/injection, schedule: Q01DX001 (ip), vehicle: saline with Tween-80) 90 % of control; (dose: 50.0 mg/kg/injection, schedule: Q01DX001 (ip), vehicle: saline with Tween-80) 104 % of control; (dose: 100.0 mg/kg/injection, schedule: Q01DX001 (ip), vehicle: saline with Tween-80) 95 % of control; (dose: 200.0 mg/kg/injection, schedule: Q01DX001 (ip), vehicle: saline with Tween-80) 90 % of control; (dose: 400.0 mg/kg/injection, schedule: Q01DX001 (ip), vehicle: saline with Tween-80) 95 % of control.
In the case of `N#Cc1ccc(C(=O)CC(O)(C(F)(F)F)C(F)(F)F)cc1`, the T/C is 104 % of control (dose: 66.0 mg/kg/injection, schedule: Q04DX003 (ip), vehicle: saline with Tween-80); 95 % of control under setting [4]; 104 % of control (dose: 150.0 mg/kg/injection, schedule: Q04DX003 (ip), vehicle: saline with Tween-80); 100 % of control under setting [5]; 95 % of control under setting [6].
Take `CCC1NC(=O)C(NC(=O)c2ncccc2O)C(C)OC(=O)C(c2ccccc2)NC(=O)C2CC(=O)CCN2C(=O)C(Cc2ccccc2)N(C)C(=O)C2CCCN2C1=O` (stereo not given) (tested in a mixture with another compound): the T/C is 99 % of control (dose: 18.75 mg/kg/injection, schedule: Q01DX009 (ip), vehicle: Klucel (hydroxypropylcellulose) (HPC)); 105 % of control (dose: 37.5 mg/kg/injection, schedule: Q01DX009 (ip), vehicle: Klucel (hydroxypropylcellulose) (HPC)); 111 % of control (dose: 75.0 mg/kg/injection, schedule: Q01DX009 (ip), vehicle: Klucel (hydroxypropylcellulose) (HPC)).
With `Cc1onc(-c2ccccc2)c1NC(=O)OC(C)c1cccnc1` (stereo not given), the T/C under setting [1] is 103 % of control, the T/C under setting [3] was 108 % of control and the T/C under setting [7] is 119 % of control.
As for `O=C(O)c1cc(B(O)O)[nH]n1`, the T/C (dose: 50.0 mg/kg/injection, schedule: Q01DX001 (ip), vehicle: saline sonified) was 104 % of control; the T/C (dose: 100.0 mg/kg/injection, schedule: Q01DX001 (ip), vehicle: saline sonified) was 100 % of control; the T/C (dose: 200.0 mg/kg/injection, schedule: Q01DX001 (ip), vehicle: saline sonified) is 100 % of control.
In the case of `CC1(C)O[C@]2(C)CC[C@@H]1[C@H]1O[C@@H]12`, the T/C was 102 % of control (dose: 50.0 mg/kg/injection, schedule: Q01DX005 (ip), vehicle: saline); 100 % of control (dose: 100.0 mg/kg/injection, schedule: Q01DX005 (ip), vehicle: saline); 102 % of control (dose: 200.0 mg/kg/injection, schedule: Q01DX005 (ip), vehicle: saline).
On to `CC(=O)Nc1nnc(/C=C/c2ccc([N+](=O)[O-])o2)s1`, for which the T/C under setting [8] was 100 % of control.
Turning to `Nc1nc(F)nc2nc[nH]c12`, the T/C reads like this: (dose: 10.0 mg/kg/injection, schedule: Q01DX009 (ip), vehicle: Klucel (hydroxypropylcellulose) (HPC)) 121 % of control; (dose: 20.0 mg/kg/injection, schedule: Q01DX009 (ip), vehicle: Klucel (hydroxypropylcellulose) (HPC)) 121 % of control.
As for `CN/N=C/c1c2c(O)c3c(O)c(C)c4c(c3c1O)C(=O)C(C)(O/C=C/C(OC)C(C)C(OC(C)=O)C(C)C(O)C(C)C(O)C(C)/C=C/C=C(/C)C(=O)N2)O4` (stereo not given), the T/C was 90 % of control under setting [1], 116 % of control under setting [3] and 117 % of control under setting [7].
As to `C[C@]12CCC(=O)C=C1CC[C@H]1[C@@H]3CC[C@@]4(OCC4=O)[C@@]3(C)C[C@H](O)[C@@]12F`, the T/C by setting is: (dose: 25.0 mg/kg/injection, schedule: Q01DX009 (ip), vehicle: Klucel (hydroxypropylcellulose) (HPC)) 96 % of control; under setting [9], 104 % of control; under setting [10], 104 % of control; under setting [11], 104 % of control; under setting [12], 112 % of control; under setting [8], 108 % of control.
Take `Cc1ccc(S(=O)(=O)NC(=O)Oc2nc3cc(Cl)ccc3o2)cc1`: the T/C under setting [1] is 99 % of control, the T/C under setting [3] is 114 % of control and the T/C under setting [7] is 96 % of control.
On to `N#CCC(=O)O`, for which the T/C is, setting by setting: (dose: 18.75 mg/kg/injection, schedule: Q01DX009 (ip), vehicle: saline with Tween-80) 100 % of control; (dose: 37.5 mg/kg/injection, schedule: Q01DX009 (ip), vehicle: saline with Tween-80) 100 % of control; under setting [2], 90 % of control.
Take `COc1c(OC)c(OC)c(C(=O)/C=C/c2ccccc2)c(OC)c1OC`: the T/C is 104 % of control (dose: 25.0 mg/kg/injection, schedule: Q01DX009 (ip), vehicle: saline with Tween-80); 104 % of control under setting [1]; 99 % of control under setting [3].
As for `O=C1C=CC(=O)N1c1ccc(Br)cc1Cl`, the T/C is, setting by setting: (dose: 1.0 mg/kg/injection, schedule: Q04DX003 (ip), vehicle: saline) 155 % of control; (dose: 2.0 mg/kg/injection, schedule: Q04DX003 (ip), vehicle: saline) 122 % of control.
With `Cc1ccc(CCO)c(C)c1`, the T/C by setting is: under setting [9], 95 % of control; under setting [10], 109 % of control; under setting [11], 100 % of control; (dose: 200.0 mg/kg/injection, schedule: Q01DX009 (ip), vehicle: Klucel (hydroxypropylcellulose) (HPC)) 90 % of control; under setting [12], 90 % of control; (dose: 400.0 mg/kg/injection, schedule: Q01DX009 (ip), vehicle: Klucel (hydroxypropylcellulose) (HPC)) 113 % of control. Also, the T/C under setting [8] is 100 % of control.
